The structures appear in SMILES notation.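 Values below derive from 48-hour exposures of cells grown in 96-well plates, with endpoints linearly interpolated between the two concentrations bracketing the appropriate inhibition level. Abbreviation: GI50, concentration required for 50% inhibition of growth. TGI marks complete inhibition of growth.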

Test systems include MDA-MB-231 breast; NCI/ADR-RES ovarian; DU-145 prostate; HS 578T breast; PC-3 prostate.
Common to all, as to assay: DTP human tumour cell line panel, 48 h

For `Clc1ccc(Nc2ncnc3c2sc2ncccc23)c(Cl)c1`, the GI50 in the experiment on MDA-MB-231 breast is more than 100 µM; in the experiment with NCI/ADR-RES ovarian, 0.0139 µM; in the experiment on DU-145 prostate it was 0.0276 µM; with HS 578T breast, more than 100 µM; with PC-3 prostate it was 2.72 µM. The TGI in the experiment with MDA-MB-231 breast, in the experiment on NCI/ADR-RES ovarian, with DU-145 prostate, in the experiment on HS 578T breast and in the experiment with PC-3 prostate was more than 100 µM throughout.
Regarding `O=C1Nc2c(ccc(Cl)c2Cl)/C1=C\c1cc(C(F)(F)F)cc(C(F)(F)F)c1`, the GI50 is 3.74 µM in the experiment on MDA-MB-231 breast; 6.38 µM in the experiment on NCI/ADR-RES ovarian; 5.57 µM in the experiment with DU-145 prostate; 1.21 µM with HS 578T breast; 1.1 µM with PC-3 prostate. Moreover, the TGI in the experiment with MDA-MB-231 breast turned out to be 10.8 µM; with NCI/ADR-RES ovarian, 14.8 µM; with DU-145 prostate, 13.5 µM; in the experiment on HS 578T breast it was 3.18 µM; with PC-3 prostate, 4.51 µM.
On to `Nc1nc(Cl)nc2c1ncn2C1OC(CO)C(O)C1O` (centres undefined), for which the GI50 is more than 100 µM in the experiment with MDA-MB-231 breast; 0.579 µM in the experiment on NCI/ADR-RES ovarian; 6.76 µM with DU-145 prostate; more than 100 µM in the experiment with HS 578T breast; more than 100 µM in the experiment on PC-3 prostate. Moreover, the TGI in the experiment with MDA-MB-231 breast, with NCI/ADR-RES ovarian, in the experiment with DU-145 prostate, in the experiment on HS 578T breast and in the experiment with PC-3 prostate was more than 100 µM each time.
In the case of `COc1ccc(Nc2ncccc2C(=O)NCc2cn(Cc3cccc(Oc4ccccc4)c3)nn2)c(OC)c1`, the GI50 is 3.63 µM in the experiment with MDA-MB-231 breast; 2.12 µM in the experiment on NCI/ADR-RES ovarian; 3.52 µM in the experiment on DU-145 prostate; 9.52 µM in the experiment with HS 578T breast; 1.36 µM in the experiment on PC-3 prostate. Also, the TGI in the experiment with MDA-MB-231 breast was more than 28.1 µM; in the experiment with NCI/ADR-RES ovarian, 35.5 µM; in the experiment with DU-145 prostate it was more than 81.5 µM; in the experiment on HS 578T breast, more than 100 µM; with PC-3 prostate, more than 100 µM.
Take `O=C1c2ccccc2-c2ccccc2C1(Cl)Cl`: the GI50 with MDA-MB-231 breast is 1.36 µM; with NCI/ADR-RES ovarian, 0.398 µM; in the experiment on DU-145 prostate, 1.47 µM; in the experiment with HS 578T breast it was 2.5 µM; in the experiment with PC-3 prostate it was 1.08 µM. Moreover, the TGI in the experiment with MDA-MB-231 breast is 3.63 µM; in the experiment with NCI/ADR-RES ovarian, 1.85 µM; in the experiment on DU-145 prostate, 2.78 µM; with HS 578T breast, 9.41 µM; with PC-3 prostate, 3.31 µM.
For the molecule `O=[N+]([O-])c1cccc([I+]c2ccccc2)c1`, the GI50 in the experiment on MDA-MB-231 breast is 14.8 µM; in the experiment on NCI/ADR-RES ovarian, 47.9 µM; in the experiment on DU-145 prostate, 11.1 µM; in the experiment with HS 578T breast, 10.1 µM; in the experiment with PC-3 prostate, 7.78 µM. Moreover, the TGI in the experiment on MDA-MB-231 breast is 33.6 µM; in the experiment on NCI/ADR-RES ovarian, more than 100 µM; in the experiment with DU-145 prostate, 24.3 µM; in the experiment with HS 578T breast it was 68.2 µM; in the experiment on PC-3 prostate, 26.1 µM.
Turning to `Cc1cc2nc3c4cc([N+](=O)[O-])ccc4n(CCN(C)C)c3nc2cc1C`, the GI50 with MDA-MB-231 breast was 0.602 µM; in the experiment on NCI/ADR-RES ovarian, 0.382 µM; in the experiment with DU-145 prostate, 0.71 µM; with HS 578T breast, 1.39 µM; with PC-3 prostate, 0.548 µM. Moreover, the TGI is more than 32.7 µM with MDA-MB-231 breast; 4.6 µM with NCI/ADR-RES ovarian; more than 27.8 µM in the experiment with DU-145 prostate; 5.87 µM in the experiment with HS 578T breast; 10.7 µM in the experiment with PC-3 prostate.
Take `Oc1[nH]c2ccccc2c1/C=c1/ccc2c(c1)N=C(c1cc(F)cc(F)c1)N=2`: the GI50 is 3.63 µM in the experiment with MDA-MB-231 breast; 4.18 µM in the experiment on NCI/ADR-RES ovarian; 10.2 µM in the experiment with DU-145 prostate; 5.08 µM in the experiment on HS 578T breast; 3.37 µM with PC-3 prostate. The TGI with MDA-MB-231 breast was 19.5 µM; in the experiment on NCI/ADR-RES ovarian, 17.7 µM; in the experiment on DU-145 prostate it was 22.2 µM; in the experiment on HS 578T breast, 31.9 µM; in the experiment on PC-3 prostate it was 16.7 µM.
Consider `Cc1ccnc(NC(c2ccccc2)c2ccc3cccnc3c2O)c1` (centres undefined), for which the GI50 was 5.65 µM with MDA-MB-231 breast; 2.47 µM in the experiment with NCI/ADR-RES ovarian; 4.9 µM in the experiment with DU-145 prostate; 3.21 µM in the experiment on HS 578T breast; 5.94 µM in the experiment on PC-3 prostate. For the same molecule, the TGI is 97.1 µM with MDA-MB-231 breast; 14.9 µM in the experiment with NCI/ADR-RES ovarian; more than 100 µM in the experiment with DU-145 prostate; 35.1 µM in the experiment on HS 578T breast; more than 100 µM in the experiment on PC-3 prostate.
`COc1cc(OC)c(/C=C/C(=O)c2c(O)cc(OC)c(C3CCN(C)CC3)c2OC)c(OC)c1`: the GI50 is 1.75 µM in the experiment with DU-145 prostate, 1.81 µM in the experiment with HS 578T breast and 1.5 µM in the experiment on PC-3 prostate. Further, the TGI was found to be 3.25 µM in the experiment with DU-145 prostate, 4.29 µM in the experiment with HS 578T breast and 2.86 µM with PC-3 prostate.
On to `O=C(Nc1nc(-c2ccccc2Cl)cs1)c1cc(-c2ccc(Cl)cc2)nc2ccc(Cl)cc12`, for which the GI50 is 2.27 µM in the experiment with MDA-MB-231 breast; 1.73 µM with NCI/ADR-RES ovarian; 4.24 µM in the experiment on DU-145 prostate; 2.67 µM with HS 578T breast; 3.25 µM in the experiment on PC-3 prostate. Further, the TGI in the experiment with MDA-MB-231 breast is 15.2 µM; with NCI/ADR-RES ovarian, more than 100 µM; in the experiment on DU-145 prostate it was more than 100 µM; with HS 578T breast, 25.7 µM; in the experiment on PC-3 prostate it was 34.5 µM.
As for `CC/C(=C(/CC)c1ccc(O)cc1)c1ccc(O)cc1`, the GI50 with MDA-MB-231 breast is 10 µM; in the experiment with NCI/ADR-RES ovarian it was 3.09 µM; in the experiment with DU-145 prostate it was 10 µM; in the experiment on HS 578T breast it was 4.17 µM; with PC-3 prostate, 5.75 µM. Also, the TGI stood at 25.2 µM in the experiment on MDA-MB-231 breast; 20.2 µM with NCI/ADR-RES ovarian; 22.4 µM with DU-145 prostate; 32 µM with HS 578T breast; 50.9 µM with PC-3 prostate.
Consider `CNC(=O)c1cc(Oc2ccc3nc(NC(=O)Nc4cc(C(F)(F)F)cc(C(F)(F)F)c4)sc3c2)ccn1`, for which the GI50 with MDA-MB-231 breast was 0.829 µM; in the experiment with DU-145 prostate, 1.25 µM; with HS 578T breast, 1.65 µM; with PC-3 prostate, 0.611 µM. The TGI in the experiment with MDA-MB-231 breast worked out at 2.62 µM; in the experiment with DU-145 prostate it was 2.98 µM; in the experiment on HS 578T breast it was 4.84 µM; in the experiment with PC-3 prostate, 2.29 µM.
Turning to `ClCc1ccc(-c2ccc(Cn3cnc4c(Cl)ncnc43)cc2)cc1`, the GI50 in the experiment on MDA-MB-231 breast was 1.77 µM; with NCI/ADR-RES ovarian, 2.16 µM; in the experiment with DU-145 prostate, 1.49 µM; in the experiment with HS 578T breast, 3.06 µM; in the experiment with PC-3 prostate it was 2.8 µM. Further, the TGI is 3.73 µM in the experiment with MDA-MB-231 breast; 4.7 µM in the experiment with NCI/ADR-RES ovarian; 3.36 µM with DU-145 prostate; more than 100 µM in the experiment on HS 578T breast; 9.92 µM with PC-3 prostate.

The record behind these values is PubChem BioAssay (NCI).
